The target in data set [1] is BSA (bovine albumin serum) (Bos taurus, UniProt P02769). In words: Protein (albumin) denaturation assay. The note with it: maximum inhibition; compounds tested at 50-200 µg/mL, diclofenac 100 µg/mL. Here is the method: Mizushima and Kobayashi’s technique was employed for the determination of in vitro anti-inflammatory activity by the protein denaturation method for the synthesized compounds. […] Then, a mixture of 500µL of 1% aqueous solution of BSA (bovine albumin serum) and 1.4 mL of phosphate buffer saline (PBS, pH 7.4) was added to 100 µL of varying concentrations of the synthesized compounds 50, 100, and 200 µg/mL. […] The mixtures are then incubated for 15 min at 37 °C and then heated for 10 min at 60 °C. The absorbance was measured at 660nm (SHIMADZU, UV-1800 Spectrophotometer) upon cooling. […] The entire experiment was done in triplicate, and the average was calculated. % inhibition of protein denaturation was calculated by: % inhibition=Absorbance of Control−Absorbance of Sample/Absorbance of Control×100
The anti-inflammatory capacity of the target compound was evaluated using the protein denaturation assay.

For another data set, the target named is T1, Human COX-2 (Homo sapiens, UniProt P35354).
T1 construct: purchased Cayman Chemicals 701230
T1 sequence (P35354 18-604): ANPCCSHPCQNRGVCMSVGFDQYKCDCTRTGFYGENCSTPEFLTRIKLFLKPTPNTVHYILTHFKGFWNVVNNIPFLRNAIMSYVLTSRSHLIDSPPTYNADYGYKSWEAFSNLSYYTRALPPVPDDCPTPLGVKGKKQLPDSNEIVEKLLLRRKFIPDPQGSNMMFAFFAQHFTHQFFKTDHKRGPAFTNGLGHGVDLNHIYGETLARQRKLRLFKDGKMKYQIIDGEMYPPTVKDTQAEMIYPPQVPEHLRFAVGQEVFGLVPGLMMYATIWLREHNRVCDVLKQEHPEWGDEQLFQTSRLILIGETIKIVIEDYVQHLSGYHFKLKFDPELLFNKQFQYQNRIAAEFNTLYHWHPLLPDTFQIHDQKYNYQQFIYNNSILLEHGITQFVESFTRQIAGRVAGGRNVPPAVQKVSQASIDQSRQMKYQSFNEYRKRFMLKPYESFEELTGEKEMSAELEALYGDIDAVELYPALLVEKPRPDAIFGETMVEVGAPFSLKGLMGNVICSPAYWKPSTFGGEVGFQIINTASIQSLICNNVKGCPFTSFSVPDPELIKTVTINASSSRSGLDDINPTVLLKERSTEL
In words: In vitro COX-2 enzymatic assay (Cayman COX (human) Inhibitor Screening Assay Kit). The class given is biochemical. Conditions: human COX-2. How it is done: The ability of the compounds to inhibit COX -2 (IC50 values, µM) was determined by using a “COX (human) Inhibitor Screening Assay Kit” procured from Cayman Chemicals (catalog number 701230). With a slight modification in the method as defined in the reference, the COX-2 inhibition assay was performed. Using the percent conversion of arachidonic acid (AA) to PGH2, the enzyme activity was calculated. By enzyme immunoassay PGF2α, which is produced from PGH2 by reduction with stannous chloride, is calculated. The test compounds’ stock solutions are prepared by dissolving in a minimum amount of DMSO. Human COX-2 (10 µL) in the presence of 10 µL of heme was suspended in 0.1M Tris-HCl buffer (pH 8.0) which contains 2 mM phenol and 5 mM EDTA. This was added to various concentrations of test compounds and, on incubating the solutions at 37 °C for 5 min, 10 µL of AA solution were added. Later, the COX reaction was stopped by adding 1M HCl (50 µL) after 2 min. The intensity of the yellow color which is produced as the product of the enzymatic reaction is determined spectrophotometrically. The percent inhibition was calculated by comparing the compound treated to different control incubations. […] The determinations are done in triplicate and the IC50 (µM) was determined using the concentration–inhibition response curve.
During the initiation of the inflammatory process, the COX enzyme plays a vital role in the progression of inflammatory response. The inflammatory mediators that arise due to the action of COX lead to the chemoattraction of neutrophils, macrophages, eosinophils, etc. […] This was carried out with the help of a COX (human) inhibitor screening assay kit (Item no. 701230) from Cayman chemicals. […] A test substance concentration was considered to be inhibitive when it inhibited human COX-1 or COX-2 by 50%. The compound’s selectivity was measured by its selectivity index values, derived as IC50 (COX-1)/IC50 (COX-2).

Data set [2] deals with HEPG2 (human liver) cell line. Put plainly: MTT anticancer assay, HepG2. In kind it is cell-based. How it is done:
(§1) The in vitro anticancer activity is determined by counting the viable cells that are stained with a vital dye. The MTT technique is an accurate measure of the activity of live cells using mitochondrial dehydrogenases. The target tumor cells A549 (human lung adenocarcinoma) and HEPG2 (human liver) cell lines are procured from the “National Centre for Cell Science” (NCCS, Pune). The sources of reagents like Trypsin, DMEM, Pen strip, and FBS are procured from Himedia. […] The culture medium was prepared, and the MTT assay was performed as per the general procedure described by Mosmann T. et al., [30] and the % viability of the cells was determined.
(§2) The target compounds tested for in vitro COX-2 were further checked for in vitro anti-cancer activity against A549 (lung cancer) and HepG2 (liver cancer) cell lines using MTT growth inhibition assay. The compounds were tested for cytotoxicity against both the cell lines at concentrations of 6.25, 12.5, 25, 50, and 100 µg/mL. […] Using the graph where % cell viability is plotted versus concentration, the IC50 values are determined with the help of the dose–response regression equation.
On the technique in general: Tetrazolium assays rely on reduction of a dye to a coloured formazan, in cell work by metabolically active cells.

Data set [3] relates to A549 (human lung adenocarcinoma) cell line. In words: MTT anticancer assay, A549. The class given is cell-based. Here is the method:
as §1, §2

A value given as a limit tells only on which side of the number the result lay.

Sequence of BSA (bovine albumin serum) (P02769 25-607): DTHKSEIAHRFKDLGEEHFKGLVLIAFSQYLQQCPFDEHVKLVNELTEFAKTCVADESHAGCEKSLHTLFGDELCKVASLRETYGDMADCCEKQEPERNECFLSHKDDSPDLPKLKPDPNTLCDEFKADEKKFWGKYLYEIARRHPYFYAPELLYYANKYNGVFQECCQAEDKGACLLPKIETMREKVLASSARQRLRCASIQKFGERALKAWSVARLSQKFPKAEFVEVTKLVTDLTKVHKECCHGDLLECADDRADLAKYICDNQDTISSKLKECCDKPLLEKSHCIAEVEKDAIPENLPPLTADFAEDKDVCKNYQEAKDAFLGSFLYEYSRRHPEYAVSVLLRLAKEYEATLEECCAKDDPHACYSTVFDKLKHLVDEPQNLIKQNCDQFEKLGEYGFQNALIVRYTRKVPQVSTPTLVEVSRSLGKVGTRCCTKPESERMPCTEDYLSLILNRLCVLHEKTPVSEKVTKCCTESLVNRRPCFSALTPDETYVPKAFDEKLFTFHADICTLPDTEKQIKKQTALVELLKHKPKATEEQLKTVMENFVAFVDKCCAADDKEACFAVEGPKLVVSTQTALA

Turning to `COc1ccc(-c2cc(C(=O)NN=Cc3cccc(Oc4ccccc4)c3)nn2-c2ccc(S(N)(=O)=O)cc2)cc1` [Compound T1, 4-(5-(4-methoxyphenyl)-3-(2-(3-phenoxybenzylidene) hydrazine-1-carbonyl)-1H-pyrazol-1-yl) benzenesulfonamide], in data set [1], the “% inhibition of albumin denaturation” value was “less than 50%”.
`COc1ccc(-c2cc(C(=O)NN=Cc3ccc(Oc4ccccc4)cc3)nn2-c2ccc(S(N)(=O)=O)cc2)cc1` [Compound T2, 4-(5-(4-methoxyphenyl)-3-(2-(4-phenoxybenzylidene) hydrazine-1-carbonyl)-1H-pyrazol-1-yl) benzenesulfonamide] showed an IC50 against Human COX-2 of 12 µM. In data set [1], the “% inhibition of albumin denaturation” value amounted to 81.77%. For the same compound, the “% cell viability” value was found to be 78.42% in data set [2] (HepG2, 6.25 µg/ml); 77.90% in data set [2] (HepG2, 12.5 µg/ml); 71.82% in data set [2] (HepG2, 25 µg/ml); 67.10% in data set [2] (HepG2, 50 µg/ml); 64.39% in data set [2] (HepG2, 100 µg/ml); 95.63% in data set [3] (A549, 6.25 µg/ml). Also, the “% cell viability” value in data set [3] (A549, 12.5 µg/ml) was 81.83%; in data set [3] (A549, 25 µg/ml), 54.02%; in data set [3] (A549, 50 µg/ml), 33.98%; in data set [3] (A549, 100 µg/ml), 18.25%. Besides, the “IC50 against HepG2” value in data set [2] (MTT, HepG2) is reported as above 100 µM. Also, the “anti-cancer activity against A549 cell lines (in words)” value in data set [3] (A549) is “active”. Besides, the “concentration at which compound was effective (from % inhibitory values)” value in data set [3] (A549 cell lines) was determined as 25 µg/mL. In data set [3] (MTT, A549), the “IC50 against A549” value stood at 31.49 µM.
Turning to `NS(=O)(=O)c1ccc(-n2nc(C(=O)NN=Cc3cccc(Oc4ccccc4)c3)cc2-c2ccc(Br)cc2)cc1` [Compound T4, 4-(5-(4-bromophenyl)-3-(2-(3-phenoxybenzylidene) hydrazine-1-carbonyl)-1H-pyrazol-1-yl) benzenesulfonamide], the “% inhibition of albumin denaturation” value in data set [1] was “less than 50%”.
Take `Cc1cc(C=NNC(=O)c2cc(-c3ccc(Cl)cc3)n(-c3ccc(S(N)(=O)=O)cc3)n2)cc(C)c1OCc1ccccc1` [Compound T6, 4-(3-(2-(4-(benzyloxy)-3,5-dimethylbenzylidene) hydrazine-1-carbonyl)-5-(4-chlorophenyl)-1H-pyrazol-1-yl)benzenesulfonamide]: the IC50 against Human COX-2 was 2.54 µM; in data set [2] (Homo sapiens, MTT, HepG2, read-out: IC50 against HepG2), below 6.25 µg/mL; in data set [3] (Homo sapiens, MTT, A549, read-out: IC50 against A549), above 100 µg/mL. For the same compound, the “% inhibition of albumin denaturation” value in data set [1] is 61.05%. In data set [2] (HepG2), the “anti-cancer activity against HepG2 cell line (in words)” value was “active”. Further, the viability at 6.25 µg/mL in data set [2] (Homo sapiens, HepG2, 6.25 µg/ml) came to 24.1%; in data set [3] (Homo sapiens, A549, 6.25 µg/ml), 97.7%. For the same compound, the viability at 12.5 µg/mL amounted to 11% in data set [2] (Homo sapiens, HepG2, 12.5 µg/ml) and 87% in data set [3] (Homo sapiens, A549, 12.5 µg/ml). In addition, the viability at 25 µg/mL in data set [2] (Homo sapiens, HepG2, 25 µg/ml) was 2.99%; in data set [3] (Homo sapiens, A549, 25 µg/ml), 78.8%. The viability at 50 µg/mL in data set [2] (Homo sapiens, HepG2, 50 µg/ml) was found to be 2.87%; in data set [3] (Homo sapiens, A549, 50 µg/ml), 74.6%. Besides, the viability at 100 µg/mL is 2.62% in data set [2] (Homo sapiens, HepG2, 100 µg/ml) and 63.4% in data set [3] (Homo sapiens, A549, 100 µg/ml).
For the compound `NS(=O)(=O)c1ccc(-n2nc(C(=O)NN=Cc3ccc(Oc4ccccc4)cc3)cc2-c2ccc(Br)cc2)cc1` [Compound T7, 4-(5-(4-bromophenyl)-3-(2-(4-phenoxybenzylidene) hydrazine-1-carbonyl)-1H-pyrazol-1-yl) benzenesulfonamide], the “% inhibition of albumin denaturation” value in data set [1] is given as “less than 50%”.
For the compound `NS(=O)(=O)c1ccc(-n2nc(C(=O)NN=Cc3ccc(Oc4ccccc4)cc3)cc2-c2ccc(Cl)cc2)cc1` [Compound T8, 4-(5-(4-chlorophenyl)-3-(2-(4-phenoxybenzylidene) hydrazine-1-carbonyl)-1H-pyrazol-1-yl) benzenesulfonamide], in data set [1], the “% inhibition of albumin denaturation” value is “less than 50%”.
For `NS(=O)(=O)c1ccc(-n2nc(C(=O)NN=Cc3ccc(Cl)cc3O)cc2-c2ccc(Br)cc2)cc1` [Compound T9, 4-(5-(4-bromophenyl)-3-(2-(4-chloro-2-hydroxybenzylidene) hydrazine-1-carbonyl)-1H-pyrazol-1-yl) benzenesulfonamide], the IC50 at Human COX-2 was determined as 3.5 µM. Further, the “% inhibition of albumin denaturation” value in data set [1] came out at 67.77%. Besides, the “% cell viability” value in data set [2] (HepG2, 6.25 µg/ml) amounted to 85.46%; in data set [2] (HepG2, 12.5 µg/ml), 84.90%; in data set [2] (HepG2, 25 µg/ml), 79.30%; in data set [2] (HepG2, 50 µg/ml) it was 67.24%; in data set [2] (HepG2, 100 µg/ml), 54.42%; in data set [3] (A549, 6.25 µg/ml), 91.72%. The “% cell viability” value in data set [3] (A549, 12.5 µg/ml) was 84.82%; in data set [3] (A549, 25 µg/ml), 76.64%; in data set [3] (A549, 50 µg/ml) it was 66.94%; in data set [3] (A549, 100 µg/ml), 54.57%. For the same compound, in data set [2] (MTT, HepG2), the “IC50 against HepG2” value is on record as above 100 µM. In data set [3] (MTT, A549), the “IC50 against A549” value is recorded as above 100 µM.
Turning to `NS(=O)(=O)c1ccc(-n2nc(C(=O)NN=Cc3ccc(Cl)cc3O)cc2-c2ccccc2)cc1` [Compound T10, 4-(3-(2-(4-chloro-2-hydroxybenzylidene) hydrazine-1-carbonyl)-5-phenyl-1H pyrazol-1-yl) benzenesulfonamide], the “% inhibition of albumin denaturation” value in data set [1] is reported as “less than 50%”.

For orientation: IC50 means the midpoint of a concentration-inhibition curve. As a reminder, the viability is a read-out of living cells in per cent, often relative to untreated cells. Low readings indicate more harm to the cells, high ones less harm to the cells.

These data come from paper PMC11048033, “Dual Anti-Inflammatory and Anticancer Activity of Novel 1,5-Diaryl Pyrazole Derivatives: Molecular Modeling, Synthesis, In Vitro Activity, and Dynamics Study” (Biomedicines, 2024).
